According to patent US10633348B2, “Methods to treat lymphoplasmacytic lymphoma” (Dana-Farber Cancer Institute, Inc., priority 2013, dated 2020):

How the values were obtained:
Format in all cases: cell-based
[1] = test system: CaMK1a
[2] = test system: STLK5
[3] = test system: MAP2K5
[4] = test system: PCTAIRE2, PCTAIRE3; experiment: KiNativ kinase profiling in A375 cells; details: Lys1, SEQ ID NO 135, 1.0 μM
[5] = test system: CDK11, CDK8; experiment: KiNativ kinase profiling in A375 cells; details: Lys2, SEQ ID NO 20, 1.0 μM
[6] = test system: p70S6Kb
[7] = test system: MAP2K6
[8] = test system: ULK3
[9] = test system: MWCL-1; experiment: CellTiter-Glo cell viability assay; details: 72 h
Description: (§1) CellTiter-Glo® Luminescent cell viability assay (Promega) was used to assess cell survival following treatment with the compounds described. Cells were seeded into 384 well plates with the EL406 Combination Washer Dispenser (BioTek Instruments, Inc.) and the compounds were injected into the cells culture media with the JANUS Automated Workstation (PerkinElmer Inc.). Cells were treated with a series diluted inhibitors (20˜0.04 μM) for 72 hours at 37° C. Luminescent measurement is performed using the 2104 Envision® Multilabel Reader (PerkinElmer Inc.).

[10] = test system: OCI-Ly19; experiment: CellTiter-Glo cell viability assay; details: Homo sapiens, OCI-LY19, 72 h
Description: as §1

[11] = test system: BCWM.1; experiment: CellTiter-Glo cell viability assay; details: BCWM1, 72 h
Description: as §1

[12] = test system: Ramos; experiment: CellTiter-Glo cell viability assay; details: Homo sapiens, 72 h
Description: as §1

[13] = test system: PI4KB
[14] = test system: FYN; experiment: KiNativ kinase profiling in A375 cells
[15] = test system: PLK1
[16] = test system: PIK3C3
[17] = test system: PI4KA, PI4KAP2; experiment: KiNativ kinase profiling in A375 cells; details: ATP, SEQ ID NO 141, 1.0 μM
[18] = test system: SRPK1
[19] = test system: CK1a
[20] = test system: NDR2
[21] = test system: JAK1
[22] = test system: ZAK
[23] = test system: PIK3C2B
[24] = test system: TYK2 domain2
[25] = test system: GSK3A
[26] = test system: ROCK1, ROCK2; experiment: KiNativ kinase profiling in A375 cells; details: Lys2, SEQ ID NO 163, 1.0 μM
[27] = test system: RIPK3
[28] = test system: MARK4
[29] = test system: CAMK1D
[30] = test system: NEK4
[31] = test system: MLKL
[32] = test system: NEK3
[33] = test system: DGKA
[34] = test system: PEK
[35] = test system: CAMK4
[36] = test system: Abl; experiment: KiNativ kinase profiling in A375 cells
[37] = test system: LYN
[38] = test system: MSK2 domain1
[39] = test system: MAP3K3
[40] = test system: BTK-pY223; experiment: PhosFlow; details: BCWM.1, Hck-wt and Hck-mu BCWM.1 cells; 0.5 μM and 0.1 μM
Description: PhosFlow was performed to detect levels of phosphorylation for BTK-pY223 (BD Biosciences) and Hck-pY410 (Abcam) in BCWM.1 cells, in BCWM cells that stably overexpress HCK (BCWM.1_HCK-wt) and in BCWM.1 cells that stably overexpress the T338M mutant of HCK (BCWM.1_HCK-mu). Cells were fixed with BD Phosflow Fix Buffer I (BD Biosciences) at 37° C. for 10 min, then washed twice with BD Phosflow Perm/Wash Buffer I (BD Biosciences). Cells were suspended in BD Phosflow Perm/Wash Buffer I at 10 million/ml and antibodies aliquoted to flow tubes with 100 μl cells. Cells were incubated at room temperature for 30 min in the dark. Cells were washed twice with BD Phosflow Perm/Wash Buffer I before performing flow analysis using a BD™ FACSCanto II flow cytometer.

In the case of CCN1CCN(Cc2ccc(NC(=O)c3ccc(C)c(Oc4cc(N)ncn4)c3)cc2C(F)(F)F)CC1 [(A-4), 3-((6-aminopyrimidin-4-yl)oxy)-N-(4-((4-ethylpiperazin-1-yl)methyl)-3-(trifluoromethyl)phenyl)-4-methylbenzamide], the “inhibition of kinase labeling” value [1] is reported as 12.4%, the “inhibition of kinase labeling” value [2] is reported as 5.0% and the “inhibition of kinase labeling” value [3] is reported as 20.5%. The “inhibition of kinase labeling” value [4] was 11.7%, the “inhibition of kinase labeling” value [5] was 50.0% and the “inhibition of kinase labeling” value [6] was 8.2%. For the same compound, the “inhibition of kinase labeling” value [7] was 0.5%, the “inhibition of kinase labeling” value [8] was −4.4% and the EC50 [9] was 1150 nM. It also gave an EC50 [10] of 9430 nM, an EC50 [11] of 3010 nM and an EC50 [12] of 21100 nM. For the same compound, the “inhibition of kinase labeling” value [13] was −0.2%, the “inhibition of kinase labeling” value ([14]; FYN, SRC, YES, Activation Loop, SEQ ID NO 50, 1.0 μM, A375 cells) was 71.2% and the “inhibition of kinase labeling” value [15] was −9.1%. The “inhibition of kinase labeling” value [16] was −5.1%, the “inhibition of kinase labeling” value [17] was 19.3% and the “inhibition of kinase labeling” value [18] was −34.1%. The “inhibition of kinase labeling” value [19] was −0.6%, the “inhibition of kinase labeling” value [20] was −10.9% and the “inhibition of kinase labeling” value [21] was 4.3%. The “inhibition of kinase labeling” value [22] was 75.7%, the “inhibition of kinase labeling” value [23] was 24.0% and the “inhibition of kinase labeling” value [24] was −18.1%. The “inhibition of kinase labeling” value [25] was 36.0%, the “inhibition of kinase labeling” value [26] was 22.0% and the “inhibition of kinase labeling” value [27] was 32.6%. The “inhibition of kinase labeling” value [28] was 2.9%, the “inhibition of kinase labeling” value [29] was −6.0% and the “inhibition of kinase labeling” value [30] was 1.5%. The “inhibition of kinase labeling” value [31] was −14.9%, the “inhibition of kinase labeling” value [32] was 13.1% and the “inhibition of kinase labeling” value [33] was −4.8%. For the same compound, the “inhibition of kinase labeling” value [34] was 9.4%, the “inhibition of kinase labeling” value [35] was 5.9% and the “inhibition of kinase labeling” value ([36]; ABL, ARG, Activation Loop, SEQ ID NO 1, 1.0 μM, A375 cells) was 95.5%. The “inhibition of kinase labeling” value [37] was 87.8%, the “inhibition of kinase labeling” value [38] was −64.9% and the “inhibition of kinase labeling” value [39] was 3.7%.
CCN1CCN(Cc2ccc(NC(=O)c3ccc(C)c(Oc4ccnc(Nc5cnn(C)c5)n4)c3)cc2C(F)(F)F)CC1 [(A-14), N-(4-((4-ethylpiperazin-1-yl)methyl)-3-(trifluoromethyl)phenyl)-4-methyl-3-((2-((1-methyl-1H-pyrazol-4-yl)amino)pyrimidin-4-yl)oxy)benzamide] showed an EC50 [9] of 128 nM, an EC50 [10] of 179 nM and an EC50 [11] of 33 nM. The EC50 [12] was 2090 nM, the FYN inhibition ([14]; 1 μM, A375 cells) was 88.2% and the KiNativ inhibition ([14]; FYN, SRC, YES, Activation Loop, SEQ ID NO 255, 1.0 μM) was 88.2%. The “BTK phosphorylation” value [40] was “inhibit”, the KiNativ inhibition [22] was 75.8% and the ZAK inhibition [22] was 75.8%. The Abl inhibition ([36]; 1 μM, A375 cells) was > 90%, the KiNativ inhibition ([36]; ABL, ARG, Activation Loop, SEQ ID NO 200, 1.0 μM) was 98.4% and the KiNativ inhibition [37] was 85.7%. For the same compound, the LYN inhibition [37] was 85.7%.
